In patent US8445505B2 (IRM LLC, priority 2008, dated 2013):

Tests used:
IGF1R Ba/F3 [1] = target: T1, IGF1R Ba/F3 (Homo sapiens, UniProt P08069); experiment: Ba/F3 Cell Viability Inhibition Assay (Tel-TK transformed Ba/F3 lines); type: cell-based, murine; parameters: most likely, as the lines are called Tel-TK) or BCR (P11274); conditions: Tel-TK (IGF1R) transformed Ba/F3 cells, 48 hours incubation, cell viability (Britelite luminescence)
Description: Ba/F3 is a murine IL-3-dependent pro-B lymphoma cell line. Parental Ba/F3 cells are used to generate a panel of sublines whose proliferation and survival is rendered IL-3-independent by stable transduction with individual tyrosine kinases activated by fusion with the amino-terminal portion of TEL (amino acid 1-375) or BCR. In order to generate Ba/F3 cell lines transformed by Tel-Tyrosine Kinase (TK) fusions, parental Ba/F3 cells are infected with a retrovirus harboring each TEL-fusion kinase and subjected to puromycin selection and IL-3 withdrawal to obtain IL-3-independent, transformed Ba/F3 cells.
Each transformed Ba/F3 cells are cultured in RPMI-1640 media (Gibco Cat #11875093, Carlsbad, Calif.) supplemented with 10% FBS (Hyclone Cat #SV30014.03, Logan, Utah), 4.5 g/L glucose (Sigma #G5400, St.Louis, Mo.), 1.5 g/L sodium bicarbonate (Biowhittaker #17-613E, Walkersville, Md.) and Pen/Strep (Gibco #10378-016, Carlsbad, Calif.). Cells are splitted twice weekly.
The potency of test compounds against various Tel-TK transformed Ba/F3 lines is determined as follows. Exponentially growing BaF3 Tel-TK cells are diluted in fresh medium to 75,000 cells/mL and seeded into 384-well plates (3750 cells/well) at 50 μL/well using a gill liquid dispenser (BioTek, Winooski, Vt., USA). […] 25 μL Britelite (Perkin Elmer) is added and luminescence is quantified using Analyst GT (Molecular Devices). […]

IGF1R Ba/F3 [2] = target: T1, IGF1R Ba/F3; experiment: as above; type: cell-based, murine; parameters: the printed alternative; conditions: Tel-TK (IGF1R) transformed Ba/F3 cells, 48 hours incubation, cell viability (Britelite luminescence)
Summary of the method: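 Murine pro-B Ba/F3 cells made IL-3-independent by TEL(1-375)- or BCR-fused tyrosine kinases; parental line run with 1 ng/ml IL-3 (final). 3750 cells/well exposed to DMSO-diluted compound for 48 h at 37 °C; viability read by Britelite luminescence. IC50 from logistic fit, concentration reducing viability to 50% of DMSO control.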

T1 sequence (P08069 999-1274 limits assumed): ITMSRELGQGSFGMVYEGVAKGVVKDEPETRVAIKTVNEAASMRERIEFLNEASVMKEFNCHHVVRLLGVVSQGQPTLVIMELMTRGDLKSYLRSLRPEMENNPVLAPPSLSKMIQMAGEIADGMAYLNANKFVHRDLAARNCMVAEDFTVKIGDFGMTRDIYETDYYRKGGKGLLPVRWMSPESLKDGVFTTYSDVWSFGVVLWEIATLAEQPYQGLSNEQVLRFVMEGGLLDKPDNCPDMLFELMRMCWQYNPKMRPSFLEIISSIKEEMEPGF

## Cc1cc(Nc2nc(Nc3cc(C)c(-c4cccnc4)cc3C)ncc2Cl)n[nH]1 [Compound 13]
IGF1R Ba/F3 [1]
  IC50: 29 nM

## Cc1cc(Nc2nc(Nc3cc(C)c(C(=O)N4CCOCC4)cc3C)ncc2Cl)n[nH]1 [Compound 32, (4-(5-chloro-4-(5-methyl-1H-pyrazol-3-ylamino)pyrimidin-2-ylamino)-2,5-dimethylphenyl)(morpholino)methanone]
IGF1R Ba/F3 [2]
  IC50: 451 nM

## Cc1cc(Nc2nc(Nc3cc(C)c([C@H]4CC[C@@H](N5CCNCC5)CC4)cc3F)ncc2Cl)n[nH]1 [Compound 58, 5-chloro-N2-(2-fluoro-5-methyl-4-((cis)-4-(piperazin-1-yl)cyclohexyl)phenyl)-N4-(5-methyl-1H-pyrazol-3-yl)pyrimidine-2,4-diamine]
IGF1R Ba/F3 [2]
  IC50: 17 nM

## CCN(CC)[C@H]1CC[C@@H](c2cc(F)c(Nc3ncc(Cl)c(Nc4cc(C)[nH]n4)n3)cc2C)CC1 [Compound 56, 5-chloro-N2-(4-((cis)-4-(diethylamino)cyclohexyl)-2-fluoro-5-methylphenyl)-N4-(5-methyl-1H-pyrazol-3-yl)pyrimidine-2,4-diamine]
IGF1R Ba/F3 [2]
  IC50: 25 nM

## CNC(=O)c1ccc(-c2cc(F)c(Nc3ncc(Cl)c(Nc4cc(C)[nH]n4)n3)cc2C)cn1 [Compound 4, 5-(4-(5-chloro-4-(5-methyl-1H-pyrazol-3-ylamino)pyrimidin-2-ylamino)-5-fluoro-2-methylphenyl)-N-methylpicolinamide]
IGF1R Ba/F3 [2]
  IC50: 89 nM

## Cc1cc(Nc2nc(Nc3cc(C)c(-c4cccnc4)cc3F)ncc2Cl)n[nH]1 [Compound 3, 5-chloro-N2-(2-fluoro-5-methyl-4-(pyridin-3-yl)phenyl)-N4-(5-methyl-1H-pyrazol-3-yl)pyrimidine-2,4-diamine]
IGF1R Ba/F3 [2]
  IC50: 67 nM

## Cc1cc(Nc2nc(Nc3cc(C)c([C@H]4CC[C@H](N5CCOCC5)CC4)cc3C)ncc2Cl)n[nH]1 [Compound 37, 5-chloro-N^2-(2,5-dimethyl-4-(4-trans-morpholinocyclohexyl)phenyl)-N^4-(5-methyl-1H-pyrazol-3-yl)pyrimidine-2,4-diamine]
IGF1R Ba/F3 [2]
  IC50: 11 nM
